The source of these data is patent publication US7825160B2, “(Biphenyl) carboxylic acids and derivatives thereof” (Cellzome Limited, priority 2004, dated 2010).

The data set can be described thus: Demonstration of CNS penetration, brain and plasma levels in mice. The format is in vivo. Conditions: mouse, oral, mice (C57), 100 mg/kg orally, samples at 2, 4 and 8 h, read-out: % ratio of brain to plasma concentration. Here is the method:
In-vivo Study: A total number of 24 mice (C57) were dosed orally at 100 mg/kg of drug compound in 10% propylene glycol, 7.5% ethanol and 82.5% solutol. At designated times (2, 4 and 8 his), a group of eight mice were sacrificed, and plasma and brain tissue samples were collected by following the NIH guideline.
Bioanalytical: Plasma samples were prepared as follows. Two hundred microliters of acetonitrile containing internal standard was added to 100 μL of plasma to precipitate proteins. After vortexing, samples were centrifuged at 10000 g for 10 min and supernatants were transferred to HPLC sample vials for analysis by LC-MS-MS. Calibration standards were prepared by adding appropriate volumes of drug stock solution directly into blank plasma (from untreated animals) and processed identically to collected plasma samples.
Brain tissues were first homogenized in two-volume of PBS buffer (e.g. 100 mg tissue in 200 μL PBS). Two hundred microliters of acetonitrile containing internal standard was added to 100 μL of tissue homogenants to precipitate proteins. Three replicates were processed for each tissue homogenant. After vortexing, samples were centrifuged at 10000 g for 10 min and supernatants were transferred to HPLC sample vials for analysis by LC-MS-MS. […]

Take `CCC[C@@H](C(=O)O)c1cc(OCc2ccccc2)cc(-c2ccc(C(F)(F)F)cc2)c1` (single isomer, unassigned) [LXIV]: the Kp came out at 0.286.

`CCC[C@H](C(=O)O)c1cc(OCc2ccccc2)cc(-c2ccc(C(F)(F)F)cc2)c1` (single isomer, unassigned) [LXV]: the Kp turned out to be 0.32.
